Source: patent US20160128935A1, “METHOD OF TREATING AN ANIMAL” (priority 2012, published 2016)

System: bacterial infections
Test: Treatment of cichlids having bacterial infections by feeding injected live worms
Format: in vivo
Conditions: Emperor and Peacock Cichlids with bacterial infections; one injected live worm per fish for six days
Protocol: Emperor Cichlids and Peacock Cichlids (fish) having bacterial infections were treated using one live food creature (a live worm) per fish for six days. Each worm was injected with Antibiotic Metronidazole at a measurement of 5 ml in syringe and the worm was injected with as much of the 5 ml as the worm would hold. The injected worms were fed to the fish individually by placing the worm adjacent the fish and feeding was confirmed by observation. The fish ate the treated worms in all cases, showing a vigorous feeding instinct for the live worms. […] It is typical to lose some fish being treated for bacterial infections.

Cc1ncc([N+](=O)[O-])n1CCO [Metronidazole]
loss of treated fish: None of the fish so treated were lost
recovery time (sufficiently recovered to be salable): sufficiently recovered to be salable within seven days
